Like-named read-outs stand apart in the source and are kept apart here.
Experiments:
[1] = tested on: protein synthesis in Raji cells; experiment: Antimetabolic activity assay, [4,5-3H]leucine incorporation (protein synthesis), Raji; assay type: cell-based; details: Homo sapiens, incorporation into TCA-insoluble material
PLC/PRF/5 hepatoma cells = experiment: Cytostatic assay, PLC/PRF/5; assay type: cell-based; details: Homo sapiens, Table 4
In short: (§1)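 Incubation of 5-7.5×10^4 cells per well with compound ran for 48–96 h (depending on the line) at 37° C; cells were then counted with a Coulter instrument.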

[2] = tested on: LNCaP (UZ) prostate cancer cells; experiment: Cytostatic assay, LNCaP (UZ); assay type: cell-based; details: Homo sapiens, Table 4
In short: as §1

CEM cells = experiment: Cytostatic assay, CEM; assay type: cell-based; details: Homo sapiens, CCRF-CEM
In short: as §1

BPH-1 (UZ) = experiment: Cytostatic assay, BPH-1 (UZ); assay type: cell-based; details: Homo sapiens, Table 4
In short: as §1

[3] = tested on: PNT1A (UZ) prostate cells; experiment: Cytostatic assay, PNT1A (UZ); assay type: cell-based; details: Homo sapiens, Table 4
In short: as §1

[4] = tested on: Caki-2 kidney carcinoma cells; experiment: Cytostatic assay, Caki-2; assay type: cell-based; details: Homo sapiens, Table 3
In short: as §1

[5] = tested on: DNA synthesis in Raji cells; experiment: Antimetabolic activity assay, [CH3-3H]dThd incorporation (DNA synthesis), Raji; assay type: cell-based; details: Homo sapiens, incorporation into TCA-insoluble material
[6] = tested on: U87 CD4+/CXCR4+/CCR5+ glioma cells; experiment: Cytostatic assay, U87 CD4+/CXCR4+/CCR5+; assay type: cell-based; details: Homo sapiens, Glioma cell; Table 3
Method: (§2) To each well of a 96-well microtiter plate were added 5-7.5×10^4 cells and a given amount of the test compound. The cells were allowed to proliferate for 48 h to 96 h (depending on the nature of the cell line) at 37° C. in a humidified CO2-controlled atmosphere. At the end of the incubation period, the cells were counted in a Coulter Counter (Coulter Electronics Ltd, Harpenden Herts, United Kingdom).

[7] = tested on: Caki-1 kidney carcinoma cells; experiment: Cytostatic assay, Caki-1; assay type: cell-based; details: Homo sapiens, Table 3
In short: as §1

[8] = tested on: HOS CD4+ osteosarcoma cells; experiment: Cytostatic assay, HOS CD4+; assay type: cell-based; details: Homo sapiens; Table 3
Method: as §2

C8166 cells = experiment: Cytostatic assay, C8166; assay type: cell-based; details: Homo sapiens, Table 2
In short: as §1

[9] = tested on: U937, human monocytic cells; experiment: Cytostatic assay, U937; assay type: cell-based; details: U-937, Table 2
In short: as §1

[10] = tested on: RNA synthesis in CEM cells; experiment: Antimetabolic activity assay, [5-3H]uridine incorporation (RNA synthesis), CEM; assay type: cell-based; details: Homo sapiens, CCRF-CEM, incorporation into TCA-insoluble material
In short: (§3)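 Each well held 10^5 CEM cells, 1 μCi of one labelled precursor and compound over a 5-fold dilution range. Following a 20 hrs incubation at 37° C, acid-insoluble radioactivity retained on glass fiber filters was determined.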

[11] = tested on: RNA synthesis in Raji cells; experiment: Antimetabolic activity assay, [5-3H]uridine incorporation (RNA synthesis), Raji; assay type: cell-based; details: Homo sapiens, incorporation into TCA-insoluble material
[12] = tested on: HL60, human leukemia cells; experiment: Cytostatic assay, HL-60; assay type: cell-based; details: Table 2
In short: as §1

Sup T1 cells = experiment: Cytostatic assay, Sup T1; assay type: cell-based; details: Homo sapiens, Table 2, read-out: Cytostatic activity (μM) Sup T 1
In short: as §1

[13] = tested on: 22Rv1 (UZ) prostate cancer cells; experiment: Cytostatic assay, 22Rv1 (UZ); assay type: cell-based; details: Homo sapiens, Table 4
In short: as §1

Molt4/C8 cells = experiment: Cytostatic assay, Molt4/C8; assay type: cell-based; details: Table 2
In short: as §1

[14] = tested on: MCF-7 mammary carcinoma cells; experiment: Cytostatic assay, MCF-7; assay type: cell-based; details: Homo sapiens, MCF7; Table 3
In short: as §1

[15] = tested on: Daudi, human B-lymphoma cells; experiment: Cytostatic assay, Daudi; assay type: cell-based; details: Table 2
Method: as §2

[16] = tested on: PC-3 (UZ) prostate cancer cells; experiment: Cytostatic assay, PC-3 (UZ); assay type: cell-based; details: Table 4
In short: as §1

[17] = tested on: FM3A mammary carcinoma cells; experiment: Cytostatic assay, FM3A; assay type: cell-based, murine; details: Mus musculus, Table 3
In short: as §1

MT-4 cells = experiment: Cytostatic assay, MT-4; assay type: cell-based; details: Homo sapiens, MT4; Table 2
In short: as §1

U87 glioma cells = experiment: Cytostatic assay, U87; assay type: cell-based; details: Homo sapiens, U-87 MG; Table 3
In short: as §1

[18] = tested on: BAEC aortic endothelial cells; experiment: Cytostatic assay, BAEC; assay type: cell-based, bovine; details: Bos taurus, Table 3
In short: as §1

[19] = tested on: Raji, human B-lymphoma cells; experiment: Cytostatic assay, Raji; assay type: cell-based; details: Table 2
In short: as §1

HUT-78 cells = experiment: Cytostatic assay, HUT-78; assay type: cell-based; details: Homo sapiens, HuT78; Table 2
In short: as §1

[20] = tested on: HEL embryonic lung fibroblast cells; experiment: Cytostatic assay, HEL; assay type: cell-based; details: Homo sapiens, Table 3
In short: as §1

HepG2C3A hepatoma cells = experiment: Cytostatic assay, HepG2C3A; assay type: cell-based; details: Homo sapiens, HepG2/C3A; Table 4
In short: as §1

[21] = tested on: broad variety of tumor cell lines; experiment: Cytostatic assays, summary over the panel of cell lines (Tables 2-4); assay type: cell-based
In short: as §1

[22] = tested on: DU145 (UZ) prostate cancer cells; experiment: Cytostatic assay, DU145 (UZ); assay type: cell-based; details: Homo sapiens, DU-145; Table 4
In short: as §1

[23] = tested on: HeLa cervix carcinoma cells; experiment: Cytostatic assay, HeLa; assay type: cell-based, human; details: Homo sapiens; Table 3; read-out: Cytostatic activity (μM) Hela
In short: as §1

[24] = tested on: PC3 (rega) prostate cancer cells; experiment: Cytostatic assay, PC3 (rega); assay type: cell-based; details: Table 4
In short: as §1

[25] = tested on: DNA synthesis in CEM cells; experiment: Antimetabolic activity assay, [CH3-3H]dThd incorporation (DNA synthesis), CEM; assay type: cell-based; details: Homo sapiens, CCRF-CEM, incorporation into TCA-insoluble material
In short: as §3

[26] = tested on: OST TK- osteosarcoma cells; experiment: Cytostatic assay, OST TK-; assay type: cell-based; details: Homo sapiens; Table 3
In short: as §1

MT-2 cells = experiment: Cytostatic assay, MT-2; assay type: cell-based; details: Homo sapiens, MT2; Table 2
In short: as §1

L1210 cells = experiment: Cytostatic assay, L1210; assay type: cell-based; details: Mus musculus, Table 2
In short: as §1

[27] = tested on: 293T embryonic kidney cells; experiment: Cytostatic assay, 293T; assay type: cell-based; details: Homo sapiens, HEK-293T; Table 3
In short: as §1

[28] = tested on: THP-1, human monocytic cells; experiment: Cytostatic assay, THP-1; assay type: cell-based; details: Table 2
In short: as §1

[29] = tested on: HT29 colorectal carcinoma cells; experiment: Cytostatic assay, HT29; assay type: cell-based; details: Homo sapiens, HT-29; Table 3
In short: as §1

Huh-7 hepatoma cells = experiment: Cytostatic assay, Huh-7; assay type: cell-based; details: Homo sapiens, Table 4
In short: as §1

[30] = tested on: protein synthesis in CEM cells; experiment: Antimetabolic activity assay, [4,5-3H]leucine incorporation (protein synthesis), CEM; assay type: cell-based; details: Homo sapiens, CCRF-CEM, incorporation into TCA-insoluble material
In short: as §3

[31] = Table 1a, read-out: IC50 μM (CEM)
[32] = Table 2, read-out: Cytostatic activity (μM) CEM
[33] = Homo sapiens, HuT78, range for the seven compounds, MT-4 and HUT-78 cells, read-out: IC50 range, cytostatic activity against MT-4 and HUT-78 cells
[34] = range for the seven compounds against the 5 tumor cell lines, read-out: IC50 range, cytostatic activity against CEM, Molt4/C8, Sup T1, MT-2 and C8166 cells

COC(=O)c1cc(CCc2ccc(OC)cc2C)sc1N [TR583, 2-Amino-5-[2-(4-methoxy-2-methyl-phenyl)-ethyl]-thiophene-3-carboxylic acid methyl ester]
IC50 [1]: > 100 µM
IC50 (PLC/PRF/5 hepatoma cells): 62 ± 21 µM
IC50 [2]: 0.35 ± 0.067 µM
IC50 (CEM cells; [31]): 1.5 µM
IC50 (CEM cells; [32]): 1.5 ± 0.28 µM
IC50 (BPH-1 (UZ)): > 100 µM
IC50 [3]: > 100 µM
IC50 [4]: ≥ 200 µM
IC50 [5]: > 100 µM
IC50 [6]: 48 ± 6.4 µM
IC50 [7]: 4.5 ± 3.8 µM
IC50 [8]: 67 ± 6.4 µM
IC50 (C8166 cells): 1.6 ± 0.95 µM
IC50 [9]: 40 ± 2.8 µM
IC50 [10]: 1 ± 0.5 µM
IC50 [11]: > 100 µM
IC50 [12]: 4.9 ± 5.4 µM
IC50 (Sup T1 cells): 0.95 ± 0.64 µM
IC50 [13]: 21 ± 17 µM
IC50 (Molt4/C8 cells): 0.27 ± 0.27 µM
IC50 [14]: 79 ± 30 µM
IC50 [15]: 61 ± 1.4 µM
IC50 [16]: 1.3 ± 0.071 µM
IC50 [17]: 49 ± 9.9 µM
IC50 (MT-4 cells): 60 ± 0.71 µM
IC50 (U87 glioma cells): > 100 µM
IC50 [18]: 44 ± 22 µM
IC50 [19]: 93 ± 11 µM
IC50 (HUT-78 cells): 39 ± 27 µM
IC50 [20]: 87 ± 19 µM
IC50 (HepG2C3A hepatoma cells): 13 ± 0.71 µM
IC50 [21, 33]: 8.5 to 60 µM
IC50 [21, 34]: 0.22 to 3.4 µM
IC50 [22]: 14 ± 1.2 µM
IC50 [23]: 105 ± 68 µM
IC50 [24]: 0.57 ± 0.3 µM
IC50 [25]: 3.1 ± 0.3 µM
IC50 [26]: 10 ± 6.9 µM
IC50 (MT-2 cells): 1.8 ± 0.64 µM
IC50 (L1210 cells): 248 ± 40 µM
IC50 [27]: 84 ± 23 µM
IC50 [28]: 32 ± 4.9 µM
IC50 [29]: > 100 µM
IC50 (Huh-7 hepatoma cells): 4.6 ± 0.28 µM
IC50 [30]: 1.9 ± 1.6 µM

COC(=O)c1cc(CCc2ccsc2)sc1N [TR595, 2-Amino-5-(2-thiophen-3-yl-ethyl)-thiophene-3-carboxylic acid methyl ester]
IC50 [1]: 43 ± 7 µM
IC50 (PLC/PRF/5 hepatoma cells): 28 ± 2.8 µM
IC50 [2]: 0.38 ± 0.1 µM
IC50 (CEM cells; [31]): 1.7 µM
IC50 (CEM cells; [32]): 1.7 ± 1.1 µM
IC50 (BPH-1 (UZ)): 46 ± 4.9 µM
IC50 [3]: 40 ± 7.1 µM
IC50 [4]: 45 ± 7.1 µM
IC50 [5]: 39 ± 33 µM
IC50 [6]: 51 ± 4.9 µM
IC50 [7]: 2.3 ± 0.14 µM
IC50 [8]: 50 ± 12 µM
IC50 (C8166 cells): 2.2 ± 0.35 µM
IC50 [9]: 42 ± 3.5 µM
IC50 [10]: 1.9 ± 0.7 µM
IC50 [11]: 27 ± 14 µM
IC50 [12]: 6.1 ± 8.6 µM
IC50 (Sup T1 cells): 1.3 ± 0.21 µM
IC50 [13]: 22 ± 9.2 µM
IC50 (Molt4/C8 cells): 0.56 ± 0.57 µM
IC50 [14]: 25 ± 11 µM
IC50 [15]: 37 ± 3.5 µM
IC50 [16]: 0.6 ± 0.071 µM
IC50 [17]: 50 ± 2.8 µM
IC50 (MT-4 cells): 30 ± 4.9 µM
IC50 (U87 glioma cells): 51 ± 2.1 µM
IC50 [18]: 27 ± 7.1 µM
IC50 [19]: 46 ± 1.4 µM
IC50 (HUT-78 cells): 38 ± 8.5 µM
IC50 [20]: 30 ± 13 µM
IC50 (HepG2C3A hepatoma cells): 8.1 ± 0.71 µM
IC50 [21, 33]: 8.5 to 60 µM
IC50 [21, 34]: 0.22 to 3.4 µM
IC50 [22]: 15 ± 8.5 µM
IC50 [23]: 36 ± 7 µM
IC50 [24]: 0.25 ± 0.27 µM
IC50 [25]: 3.2 ± 1.2 µM
IC50 [26]: 8.2 ± 6.9 µM
IC50 (MT-2 cells): 0.57 ± 0.078 µM
IC50 (L1210 cells): 41 ± 2 µM
IC50 [27]: 44 ± 5.7 µM
IC50 [28]: 41 ± 2.8 µM
IC50 [29]: 30 ± 5.7 µM
IC50 (Huh-7 hepatoma cells): 1.3 ± 0.28 µM
IC50 [30]: 0.66 ± 0.13 µM

— patent US9278958B2, “Anti-cancer compounds” (KATHOLIEKE UNIVERSITEIT LEUVEN, priority 2012, dated 2016)
